Entries after “also recorded” stand apart in the source; their conditions may differ.

The subject of experiment [1] is CTGF. Put plainly: CTGF mRNA levels in tibialis anterior muscle of exercised mdx mice, RT-qPCR. Type of experiment: in vivo, mouse. The following applies: 1 mg/kg i.p. 3 times per week for 3 months, vs vehicle. The procedure:
FIG. 3. Andrographolide modulates CTGF action in vivo. A) To augment the extent of muscle fibrosis, 3 months old mdx mice were subjected to an exercise protocol for 3 months. Along this period one group was treated with 1 mg/kg andrographolide or vehicle (i.p. injections 3 time per week, 4 animal per group). CTGF mRNA levels, a downstream TGF-β1 pro-fibrotic mediator) were determined in tibialis anterior muscle from Wild type (WT), Vehicle-Treated mdx and andrographolide-treated mdx mice by RT-qPCR using GAPDH as reference gene. Values correspond to the mean of dCT value±SD of three independent experiments, using four mice for each experimental condition and normalized to WT levels (*, P<0.05 relative to WT mice; #, P<0.05 relative to Vehicle-treated mdx mice). B) Detection of macrophages (F4/80 positive cells) through immunohistochemistry analysis in cryosections of tibialis anterior muscle from andrographolide-treated WT mice that overexpress CTGF by adenovirus (adv CTGF) infection.
Control or mdx (12 weeks old) male mice of C57BL/10 ScSn strain were studied. The animals were kept at room temperature with a […] night-day cycle and fed with pellets and water ad libitum. Experimental exercise was performed for running the mice in a treadmill for three times per week, 30 minutes each time at 12 m/min during 3 or 4 months (De Luca et al., 2005; De Luca et al., 2003). […]
(In general: Quantitative PCR measures a nucleic acid by following its amplification.)

The subject of experiment [2] is mdx mice. Put plainly: Satellite cell graft into tibialis anterior of andrographolide pre-treated mdx mice. Type of experiment: in vivo, mouse. As for the experimental part: FIG. 8. Muscle stem cell therapy with satellite cells is improved by reducing the muscle fibrosis by the treatment with andrographolide. A) 3 months old mdx mice were subjected to an exercise protocol for 4 months to augment the extent of muscle fibrosis. During this period one group was treated with andrographolide or vehicle (i.p. injections 3 time per week, 6 animal per group). 1 week after the last drug administration (7 month old mice), 500 freshly isolated satellite cells (SC) purified from WT mice were transplanted in both tibialis anterior muscle of each mdx mouse. 4 weeks after the engraftment the number of fibers expressing dystrophin and collagen I were determined by immunofluorescence on cryosections. The images are representative of 2 experimental group with 6 mice per group. B) Quantification of the data obtained in A showing the number of myofibers expressing dystrophin per tibialis anterior muscle in each case. C) The number of satellite cells (PAX-7 positive nuclei) were determined on isolated single muscle fibers from extensor digitoriumlongus muscle (EDL) in each case as indicative of the endogenous SC survival.
The isolation of single myofibers were prepared essentially as described (Kelly et al., 1995, Collins 2005), briefly extensor digitorium (EDL) and soleus muscles from 6 weeks old C57-BL10 mice were dissected and digested in 0.2% (w/v) collagenase type 1 (Sigma) in DMEM (Gibco) 4 mM L-glutathatmine (Sigma) and 1% penicillin and streptomycin solution (Sigma) for […] in a 37° C. water bath. After gentle muscle trituration only single and stretched myofibers were collected in DMEM. The myofibers were washed by serial transfers in 4 dishes (pre-coated with horse serum to prevent myofiber attachment) containing DMEM. The myofibers were finally collected in DMEM containing 10% FBS, 10% horse serum, 0.5% chick embryo extract and 5 ng/ml of FGF-2 (R&D) and cultured for 30 min in a 5% CO2 cell culture incubator.
Satellite cells were separated from the myofibers by physical trituration using the method of Collins et al (2005). Briefly, the isolated intact fibers were suspended in 10 ml of complete medium and triturated with a 19 G needle mounted on a 1 ml syringe. The suspension was sequentially passed through a 70 um and 40 um cell sieve (Falcon) to remove debris. The satellite cell suspension was centrifuged for 15 min at 450 RCF. The pellet was resuspended in physiologic serum (NaCl 0.9%). An aliquot was stained with Hoechst 1 ug/ml and cholera toxin sub unit B conjugated to Alexa Fluor 488 (Invitrogen) 1 ug/ml for 5 minutes, washed with PBS and incubated with trypan blue. The double stained cells that exclude the trypan blue were counted in a hemocytometer as viable cells. The concentration of cells was adjusted to 25 cell/μl. […]

Experiment [3] concerns MES-13 cells. The following applies: cited from earlier work.
Experiment [4] concerns mdx mice. The experiment can be described thus: Serum creatine kinase (CK) measurement in mdx mice. It counts as in vivo, mouse. The note with it: exercised mdx mice, 1 mg/kg i.p. 3 times per week for 3 months, vs vehicle. The procedure:
FIG. 4. Andrographolide reduced skeletal muscle damage in mdx mice. To augment the extent of muscle fibrosis, 3 months old mdx mice were subjected to an exercise protocol for 3 months. Along this period one group was treated with 1 mg/kg andrographolide or vehicle (i.p. injections 3 time per week, 6 animal per group). […] B) Evans blue dye uptake in tibialis anterior muscle fibers from wild-type (WT), Vehicle-treated mdx and andrographolide-treated mdx mice. Nuclei were labeled with Hoechst. Mice were injected i.p. with 1% Evans blue dye 24 hours before muscle fixation. Bar corresponds to 200 μm. […] Values are expressed as mean±SD of three independent experiments, using eight mice for each experimental condition. (*, P<0.05 relative to WT mice; #, P<0.05 relative to Vehicle-treated mdx mice).
Control or mdx (12 weeks old) male mice of C57BL/10 ScSn strain were studied. The animals were kept at room temperature with a […] night-day cycle and fed with pellets and water ad libitum. […]
Mice were anesthetized by isofluorane gas, and blood was obtained from the periorbital vascular plexus directly into microhematocrit tubes (70 μl, Fisher Scientific). […] Serum CK was measured by enzymatic system (Valtek, Chile) according to the manufacturer instructions) (Osses and Brandan, 2002).

Experiment [5] concerns C2C12. The experiment can be described thus: Fibronectin and collagen type III protein levels induced by TGF-β1 in C2C12 cells, immunoblot. The note with it: C2C12, 10 ng/ml TGF-β1, 50 μM andrographolide, 24 hrs. It counts as cell-based, mouse.

`C=C1CC[C@@H]2[C@](C)(CO)[C@H](O)CC[C@@]2(C)[C@@H]1C/C=C1/C(=O)OC[C@H]1O` [andrographolide]: the “CTGF expression (mRNA) in mdx mice” value in experiment [1] was “reduced”. Besides, the “increase in number of dystrophin positive fibers compared to controls” value in experiment [2] (mdx mice pre-treated with andrographolide, 500 WT satellite cells grafted per tibialis anterior, one month after transplantation) was 3 times. Besides, the “collagen-I content after satellite cell transplantation” value in experiment [2] (mdx mice pre-treated with andrographolide, one month after transplantation, immunofluorescence) was “clear reduction”. Also, the “change in number of satellite cells present on isolated EDL myofibers” value in experiment [2] (same transplanted mdx mice, PAX-7 positive nuclei, endogenous satellite cells) was “no changes”. Besides, the “mean satellite cells per EDL myofiber” value in experiment [2] (same transplanted mdx mice, no change between treated and untreated) is listed as 12.5 satellite cells per EDL myofiber. In addition, in experiment [3] (MES-13 cells), the “phenotypes indicating diabetic nephropathy in MES-13 cells” value is “reduces”. For the same compound, the “antioxidant ability in a cellular environment” value in experiment [3] was “do not have antioxidant ability”. In experiment [3] (high glucose cultured MES-13 cells), the intracellular oxidative states entry is on record as “reduced”. Besides, the “serum CK levels” value in experiment [4] is listed as “significant reduction; also recorded: decreased”. In experiment [5], the “collagen type III protein levels induced by TGF-β1 in vitro” value was “decreased” and the “fibronectin protein levels induced by TGF-β1 in vitro” value is “decreased”.

The values above are taken from patent US20140271573A1, “PHARMACO-CELLULAR THERAPEUTIC METHOD FOR THE TREATMENT OF MUSCULAR DYSTROPHIES” (PONTIFICIA UNIVERSIDAD CATÓLICA DE CHILE, priority 2013, published 2014).
